Common to all, as to test: NCI anticancer screen, dose series, 48 h
Assay [1] concerns COLO 205 colon.
Assay [2] deals with 786-0 renal.
Assay [3] concerns CAKI-1 renal.
The test system of assay [4] is MDA-MB-435.
In assay [5] the test system is SR leukemia.
Assay [6] deals with IGROV1 ovarian.
The test system of assay [7] is T-47D breast.
Assay [8] relates to SK-MEL-2 melanoma.
Assay [9] has as its system RPMI-8226 leukemia.
Assay [10] deals with UO-31 renal.

Structures are written as SMILES. “And” between values parts separate entries of the source, which are not always exact repeats. Equal values may be shown once.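 Cultured in 96-well plates, cells were exposed to test compound for 48 hours across five concentrations. The concentration for 50% growth inhibition is given as GI50. Definition used: TGI = concentration required for complete inhibition of growth.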

In the case of `Fc1cccc(C2ON=C(c3ccccc3)N2C23CC4CC(CC(C4)C2)C3)c1` (centres undefined), the TGI in [1], in assay [2], in [3], in [4], in [5] and in assay [6] was > 10 µM each time. Moreover, the TGI in assay [7], in assay [8] and in assay [9] was > 10 µM each time.
Consider `COc1cc(/C=C/C(=O)/C=C/c2ccc(-n3ccnc3)cc2)ccc1O`, for which the GI50 in assay [1] is 3.26 µM; in assay [2], 2.01 µM; in [3] it was 3.24 µM; in assay [4] it was 2.21 µM; in [5] it was 1.67 µM; in [10], 1.51 µM. The GI50 is 2.98 µM in assay [7], 20.8 µM in [8] and 1.54 µM in assay [9]. Also, the TGI came to 10.1 µM in [1]; 4.85 µM in assay [2]; 11.5 µM in assay [3]; 5.14 µM in assay [4]; 9.24 µM in [5]; 3.15 µM in assay [10]. Besides, the TGI in assay [7] is 9.92 µM; in assay [8], 55.8 µM; in [9], 4.46 µM.
For the molecule `C=C(c1ccc(C(=O)NCCCn2ccnc2)cc1)c1cc2c(cc1C)C(C)(C)CCC2(C)C`, the GI50 is 1.12 µM in [1]; 1.94 µM in assay [2]; 1.47 µM in [3]; 0.0734 µM in assay [4]; 3.93 µM in [10]; 1.92 µM in [6]. Further, the results for the GI50 in [7] and in [8] were 0.281 µM and 2.71 µM, respectively. The TGI is 3.28 µM in assay [1]; 5.45 µM in [2]; > 51.2 µM in [3]; 16 µM in assay [4]; 17.7 µM in assay [10]; > 32 µM in assay [6]. In addition, the TGI in assay [7] was determined as 6.76 µM; in [8] it was 7.33 µM.
Turning to `COc1ccc(N=C2C(=O)Nc3ccc(Br)cc32)cc1`, the TGI was 34.6 µM in assay [1]; 43.6 µM in [2]; 60.6 µM in assay [3]; 27.4 µM in assay [4]; 28.6 µM in [5]; 26.5 µM in assay [10]. Moreover, the TGI in assay [7] was found to be 74.6 µM; in assay [9] it was 25.2 µM.
`C#CCN(CCCOc1ccc(Cl)cc1Cl)CCCSC(=O)CCCCCN1/C(=C\C=C2/CCCC(/C=C/C3=[N+](CCCCCC(=O)[O-])c4ccccc4C3(C)C)=C2Cl)C(C)(C)c2ccccc21`: the GI50 in assay [1] is 1.41 µM; in assay [2] it was 1.78 µM; in assay [4] it was 1.46 µM; in [10], 10.6 µM; in assay [6] it was 1.42 µM; in assay [7], 0.768 µM. Further, the GI50 in assay [8] is 1.77 µM. Besides, the TGI in [1] amounted to 3.39 µM; in [2] it was 3.5 µM; in assay [4] it was 3.15 µM; in [10] it was 26.2 µM; in assay [6], 3.34 µM; in [7], 3.21 µM. This molecule showed a TGI in assay [8] of 4.2 µM.
On to `COc1ccc(C2=NOC3=c4ccccc4=CSC3=C2c2ccccc2)cc1`, for which the GI50 was 48.7 µM in assay [1]; 27.5 µM in assay [2]; 64.7 µM in assay [3]; 42.9 µM in [4]; 39.2 µM in [10]; 45.8 µM in [6]. Also, the GI50 was 30.3 µM in assay [7], 75.3 µM in [8] and 25.3 µM in assay [9]. Also, the TGI in assay [1], in [2], in assay [3], in [4], in assay [10] and in assay [6] was > 100 µM in each case. Also, the TGI was 73.9 µM in assay [7], > 100 µM in assay [8] and > 100 µM in [9].
Take `Nc1c([N+](=O)[O-])ncn1C1OC(CO)C(O)C1O` (centres undefined): the GI50 in [1], in [2], in assay [3], in assay [4], in [10] and in assay [6] was > 100 µM each time. Also, the GI50 in assay [7], in assay [8] and in [9] was > 100 µM throughout. For the same molecule, the TGI in assay [1], in assay [2], in assay [3], in assay [4], in assay [10] and in assay [6] was > 100 µM each time. Besides, the TGI in assay [7], in assay [8] and in assay [9] was > 100 µM each time.
With `CC(=O)O[C@H]1C(=O)[C@@]2(C)C([C@H](OC(=O)c3ccccc3)[C@]3(O)C[C@H](OC(=O)[C@H](O)[C@@H](NC(=O)c4ccc(Cl)cc4)c4ccccc4)C(C)=C1C3(C)C)C1(OC(C)=O)CO[C@@H]1C[C@@H]2O` (some centres undefined), the GI50 was 0.045 µM in assay [2], 0.0269 µM in assay [3], 4.77 µM in assay [10] and 0.0134 µM in assay [6]. For the same molecule, the TGI is 3.09 µM and 29.7 µM in [2]; 25 µM and 32.3 µM in [3]; 0.0126 µM in [4]; 25 µM and 53.8 µM in assay [10]; 25 µM and 28.2 µM in assay [6]; 25 µM in [7]. The molecule also showed a TGI in assay [9] of 11.7 µM.
As for `CC(=O)Nc1ccc2c(c1)[nH]c(=O)c1cc(Cl)ccc12`, the TGI is > 100 µM in assay [1]; > 100 µM in [2]; 8.4 µM in assay [3]; > 100 µM in [4]; 18.4 µM in assay [5]; > 100 µM in assay [10]. The TGI in assay [6], in assay [7] and in [8] was > 100 µM in each case.
As for `CC1(C)N=C(N)N=C(N)N1c1ccc(CCCCCCc2ccc(S(=O)(=O)F)cc2)cc1`, the TGI came to 12.8 µM in [1]; 16.5 µM in [2]; 44.3 µM in assay [3]; 21.2 µM in [4]; 29.5 µM in assay [10]; 30.8 µM in [6]. The TGI is 52 µM in [7] and 30.2 µM in assay [8].

The values above are taken from PubChem BioAssay (NCI).
